{"source": "patent US11814519B2", "about": "“Nitric oxide-releasing 3D-printing compositions and uses thereof” (Virginia Commonwealth University, priority 2020, dated 2023)", "key": {"[1]": {"conditions": "cited from earlier work"}, "[2]": {"assay": "Optical images of a thin printed layer of donor-loaded silicone rubber soaked in phosphate buffered saline-EDTA (dissolution of donor particles)", "assay_type": "physicochemical", "conditions": "thin printed layer soaked in PBSE", "procedure": "FIG. 4A-C is optical images of a thin layer of S-nitroso-N-acetylpenicillamine-doped silicone rubber before soaking (A) and after 24 h (B) and 48 h (C) of soaking in phosphate buffered saline-EDTA.\nFIG. 7A-C is bright-field optical images of a thin layer of S-nitrosoglutathione-loaded silicon rubber before and after soaking in phosphate buffered saline-EDTA."}, "[3]": {"assay": "Solubility of the NO donor in solvents and in the silicone ink", "assay_type": "physicochemical", "conditions": "silicone ink ingredients"}}}
{"smiles": "CC(=O)N[C@H](C(=O)O)C(C)(C)SN=O", "note": "(racemic) [SNAP, S-nitroso-N-acetylpenicillamine]", "values": [{"measurement": "solvents in which the donor is soluble", "setting": "[1]", "value": "most soluble in organic solvents such as methanol and tetrahydrofuran"}, {"measurement": "time required for dissolution of donor particles in the thin printed layer", "setting": "[2]; optical images", "value": 3, "unit": "days"}, {"measurement": "solubility in the silicone rubber ink", "setting": "[3]", "value": "not dissolved in the ink ingredients"}]}
{"smiles": "N[C@@H](CCC(=O)N[C@@H](CSN=O)C(=O)NCC(=O)O)C(=O)O", "note": "[GSNO, S-nitrosoglutathione]", "values": [{"measurement": "solvents in which the donor is soluble", "setting": "[1]", "value": "only appreciably dissolved in water and DMSO"}, {"measurement": "water solubility relative to SNAP", "setting": "[1]; water", "value": "much higher"}, {"measurement": "time for dissolution of donor particles in the thin printed layer", "setting": "[2]; optical images (FIG. 7)", "value": "dissolved within a day"}, {"measurement": "solubility in the silicone rubber ink", "setting": "[3]", "value": "not soluble"}]}
